Source: PMC6225228, “Design, Synthesis and Evaluation of N-pyrazinylbenzamides as Potential Antimycobacterial Agents” (Molecules : A Journal of Synthetic Chemistry and Natural …, 2018)
≈ marks a conversion by molar mass, not a printed value. Where two headings read alike, the source gives them in different places.

Columns and labels:
Candida tropicalis 156 = experiment: Antifungal microdilution broth, CT; type: cell-based; settings: read-out: MIC CT
[1] = tested on: Staphylococcus aureus H 5996/08 methicillin resistant; experiment: microbe, parasite or virus in culture; type: cell-based; settings: Staphylococcus aureus, MRSA, read-out: MIC MRSA
[2] = tested on: Staphylococcus epidermidis H 6966/08; experiment: Antibacterial microdilution broth, SE; type: cell-based; settings: Staphylococcus epidermidis, read-out: MIC SE
[3] = tested on: M. kansasii CNCTC My 235/80 (ATCC 12478); experiment: Antimycobacterial microdilution MABA, M. kansasii; type: cell-based, Mycobacterium kansasii; settings: for M. kans. ATCC 12478 MIC: Middlebrook 7H9 with OADC, pH 6.6, MABA; for MIC: Mycobacterium kansasii, ATCC12478, pH 6.6, read-out: M. kans. ATCC 12478 MIC, Middlebrook 7H9 with OADC, pH 6.6, MABA
[4] = tested on: Trichophyton interdigitale 445; experiment: Antifungal microdilution broth, TI; type: cell-based; settings: read-out: MIC TI
[5] = tested on: Lichtheimia corymbifera 272; experiment: Antifungal microdilution broth, LC; type: cell-based; settings: read-out: MIC LC
[6] = tested on: M. avium ssp. avium CNCTC My 80/72 (ATCC 15769); experiment: Antimycobacterial microdilution MABA, M. avium; type: cell-based, Mycobacterium avium; settings: for M. avium ATCC 15769 MIC: Middlebrook 7H9 with OADC, pH 6.6, MABA; for MIC: Mycobacterium avium, ATCC15769, pH 6.6, read-out: M. avium ATCC 15769 MIC
[7] = tested on: Mycobacterium tuberculosis H37Rv CNCTC My 331/88 (ATCC 27294); experiment: Antimycobacterial microdilution MABA, M. tuberculosis; type: cell-based; settings: for Mtb H37Rv ATCC 27294 MIC: Middlebrook 7H9 with OADC growth supplement, pH = 6.6, MABA; for MIC: Mycobacterium tuberculosis, read-out: Mtb H37Rv ATCC 27294 MIC, Middlebrook 7H9 with OADC growth supplement, pH = 6.6, MABA
[8] = tested on: Enterococcus sp. J 14365/08; experiment: Antibacterial microdilution broth, EF; type: cell-based; settings: Enterococcus, read-out: MIC EF
[9] = tested on: Staphylococcus aureus CCM 4516/08; experiment: Antibacterial microdilution broth, SA; type: cell-based; settings: Staphylococcus aureus
[10] = tested on: Candida albicans ATCC 44859; experiment: Antifungal microdilution broth, CA; type: cell-based; settings: Candida albicans, read-out: MIC CA
[11] = tested on: Pseudomonas aeruginosa CCM 1961; experiment: Antibacterial microdilution broth, PA; type: cell-based; settings: Pseudomonas aeruginosa, read-out: MIC PA
Candida glabrata 20/I = experiment: Antifungal microdilution broth, CG; type: cell-based; settings: Nakaseomyces glabratus, 20/I, read-out: MIC CG
[12] = tested on: Aspergillus fumigatus 231; experiment: Antifungal microdilution broth, AF; type: cell-based; settings: read-out: MIC AF
Candida krusei E28 = experiment: Antifungal microdilution broth, CK; type: cell-based; settings: Pichia kudriavzevii, read-out: MIC CK
[13] = tested on: Escherichia coli CCM 4517; experiment: Antibacterial microdilution broth, EC; type: cell-based; settings: Escherichia coli, read-out: MIC EC
Trichosporon asahii 1188 = experiment: Antifungal microdilution broth, TA; type: cell-based; settings: read-out: MIC TA
[14] = tested on: Mycobacterium smegmatis CCM 4622 (ATCC 607); experiment: Antimycobacterial microdilution, M. smegmatis; type: cell-based; settings: Mycolicibacterium smegmatis, read-out: M. smeg. ATCC 607 MIC
[15] = Trichophyton interdigitale, 445, 72 h
[16] = Trichophyton interdigitale, 445, 120 h
[17] = Lichtheimia corymbifera, 272, 24 h
[18] = Lichtheimia corymbifera, 272, 48 h
[19] = CCM4516, 24 h, read-out: MIC SA, 24 h
[20] = CCM4516, 48 h, read-out: MIC SA, 48 h
[21] = Aspergillus fumigatus, 231, 24 h
[22] = Aspergillus fumigatus, 231, 48 h
[23] = Trichosporon asahii, 1188, 24 h
[24] = Trichosporon asahii, 1188, 48 h

| SMILES | MIC (Candida tropicalis 156; Candida tropicalis, 156, 24 h) [µM] | MIC (Candida tropicalis 156; Candida tropicalis, 156, 48 h) [µM] | MIC ([1]; 24 h) [µM] | MIC ([1]; 48 h) [µM] | MIC ([2]; H6966/08, 24 h) [µM] | MIC ([2]; H6966/08, 48 h) [µM] | MIC [3] [µg/mL] | MIC [4, 15] [µM] | MIC [4, 16] [µM] | MIC [5, 17] [µM] | MIC [5, 18] [µM] | MIC [6] [µg/mL] | MIC [7] [µg/mL] | MIC ([8]; SP.J14365/08, 24 h) [µM] | MIC ([8]; SP.J14365/08, 48 h) [µM] | MIC [9, 19] [µM] | MIC [9, 20] [µM] | MIC ([10]; ATCC44859, 24 h) [µM] | MIC ([10]; ATCC44859, 48 h) [µM] | MIC ([11]; CCM1961, 72 h) [µM] | also measured |
| --- | --- | --- | --- | --- | --- | --- | --- | --- | --- | --- | --- | --- | --- | --- | --- | --- | --- | --- | --- | --- | --- |
| O=C(Nc1cnccn1)c1ccccc1Cl [Compound 1j] | > 500 | > 500 | > 500 | > 500 | 500 (≈ 117 µg/mL) | 500 (≈ 117 µg/mL) | > 100 | > 500 | > 500 | > 500 | > 500 | > 100 | > 100 | > 500 | > 500 | 250 (≈ 58.4 µg/mL) | 250 (≈ 58.4 µg/mL) | > 500 | > 500 | 250 (≈ 58.4 µg/mL) | M. kans. ATCC 12478 MIC [3]: >100 µg/mL; M. avium ATCC 15769 MIC [6]: >100 µg/mL; Mtb H37Rv ATCC 27294 MIC [7]: >100 µg/mL; MIC ([11]; CCM1961, 120 h): 250 µM (≈ 58.4 µg/mL); MIC (Candida glabrata 20/I; 24 h): > 500 µM; MIC (Candida glabrata 20/I; 48 h): > 500 µM; MIC [12, 21]: > 500 µM; MIC [12, 22]: > 500 µM; MIC (Candida krusei E28; E28, 24 h): > 500 µM; MIC (Candida krusei E28; E28, 48 h): > 500 µM; MIC ([13]; CCM4517, 24 h): > 500 µM; MIC ([13]; CCM4517, 48 h): > 500 µM; melting point: 128.2 to 129.7 °C; MIC (Trichosporon asahii 1188; [23]): > 500 µM; MIC (Trichosporon asahii 1188; [24]): > 500 µM; MIC [14]: 250 µg/mL (≈ 1070 µM) |
| COc1ccccc1C(=O)Nc1cncc(Cl)n1 [Compound 3e] | > 500 | > 500 | > 500 | > 500 | > 500 | > 500 | > 100 | > 500 | > 500 | > 500 | > 500 | > 100 | > 100 | > 500 | > 500 | > 500 | > 500 | > 500 | > 500 | > 500 | Mtb H37Rv ATCC 27294 MIC [7]: >100 µg/mL; MIC ([11]; CCM1961, 120 h): > 500 µM; MIC (Candida glabrata 20/I; 24 h): > 500 µM; MIC (Candida glabrata 20/I; 48 h): > 500 µM; MIC [12, 21]: > 500 µM; MIC [12, 22]: > 500 µM; MIC (Candida krusei E28; E28, 24 h): > 500 µM; MIC (Candida krusei E28; E28, 48 h): > 500 µM; MIC ([13]; CCM4517, 24 h): > 500 µM; MIC ([13]; CCM4517, 48 h): > 500 µM; melting point: 149.1 to 150.7 °C; MIC (Trichosporon asahii 1188; [23]): > 500 µM; MIC (Trichosporon asahii 1188; [24]): > 500 µM; MIC [14]: ≥ 500 µg/mL |
| COc1ccccc1C(=O)Nc1cnccn1 [Compound 1e] | > 500 | > 500 | > 500 | > 500 | > 500 | > 500 | 100 (≈ 436 µM) | > 500 | > 500 | > 500 | > 500 | > 100 | > 100 | > 500 | > 500 | > 500 | > 500 | > 500 | > 500 | > 500 | M. avium ATCC 15769 MIC [6]: >100 µg/mL; Mtb H37Rv ATCC 27294 MIC [7]: >100 µg/mL; MIC ([11]; CCM1961, 120 h): > 500 µM; MIC (Candida glabrata 20/I; 24 h): > 500 µM; MIC (Candida glabrata 20/I; 48 h): > 500 µM; MIC [12, 21]: > 500 µM; MIC [12, 22]: > 500 µM; MIC (Candida krusei E28; E28, 24 h): > 500 µM; MIC (Candida krusei E28; E28, 48 h): > 500 µM; MIC ([13]; CCM4517, 24 h): > 500 µM; MIC ([13]; CCM4517, 48 h): > 500 µM; melting point: 100.3 to 102.4 °C; MIC (Trichosporon asahii 1188; [23]): > 500 µM; MIC (Trichosporon asahii 1188; [24]): > 500 µM; MIC [14]: 125 µg/mL (≈ 545 µM) |
| O=C(c1ccc(Cl)cc1)N(C(=O)c1ccc(Cl)cc1)c1cnccn1 [Compound 1l-SP] | > 125 | > 125 | > 125 | > 125 | > 125 | > 125 | > 100 | > 125 | > 125 | > 125 | > 125 | > 100 | 50 (≈ 134 µM) | > 125 | > 125 | > 125 | > 125 | > 125 | > 125 | > 125 | M. kans. ATCC 12478 MIC [3]: >100 µg/mL; M. avium ATCC 15769 MIC [6]: >100 µg/mL; MIC ([11]; CCM1961, 120 h): > 125 µM; MIC (Candida glabrata 20/I; 24 h): > 125 µM; MIC (Candida glabrata 20/I; 48 h): > 125 µM; MIC [12, 21]: > 125 µM; MIC [12, 22]: > 125 µM; MIC (Candida krusei E28; E28, 24 h): > 125 µM; MIC (Candida krusei E28; E28, 48 h): > 125 µM; MIC ([13]; CCM4517, 24 h): > 125 µM; MIC ([13]; CCM4517, 48 h): > 125 µM; melting point: 153.1 to 153.8 °C; MIC (Trichosporon asahii 1188; [23]): > 125 µM; MIC (Trichosporon asahii 1188; [24]): > 125 µM; MIC [14]: ≥ 500 µg/mL |
| O=C(Nc1cnccn1)c1ccccc1O [Compound 1b] | > 500 | > 500 | > 500 | > 500 | > 500 | > 500 | > 100 | 500 (≈ 108 µg/mL) | 500 (≈ 108 µg/mL) | > 500 | > 500 | > 100 | > 100 | > 500 | > 500 | > 500 | > 500 | > 500 | > 500 | > 500 | MIC ([11]; CCM1961, 120 h): > 500 µM; MIC (Candida glabrata 20/I; 24 h): > 500 µM; MIC (Candida glabrata 20/I; 48 h): > 500 µM; MIC [12, 21]: > 500 µM; MIC [12, 22]: > 500 µM; MIC (Candida krusei E28; E28, 24 h): > 500 µM; MIC (Candida krusei E28; E28, 48 h): > 500 µM; MIC ([13]; CCM4517, 24 h): > 500 µM; MIC ([13]; CCM4517, 48 h): > 500 µM; melting point: 209.9 to 211.5 °C; MIC (Trichosporon asahii 1188; [23]): > 500 µM; MIC (Trichosporon asahii 1188; [24]): > 500 µM; MIC [14]: ≥ 500 µg/mL |
